Test results published in patent US20240216311A1, “FULLY-DILUTABLE, SELF-MICROEMULSIFYING DELIVERY SYSTEMS (SMEDDS) FOR POORLY WATER-SOLUBLE POLAR SOLUTES” (THE GOVERNING COUNCIL OF THE UNIVERSITY OF TORONTO, priority 2020, published 2024).
Read-outs that look alike come from different tables or passages of the source.

How the values were obtained:
[1] = cited from earlier work; for Polar area: from ChemSpider; for Dipole moment: from Tantishaiyakul et al. [33]
[2] = Characteristic curvature (Cc) by salinity phase scans with reference surfactant C9E5; assay type: physicochemical; conditions: for Cc (characteristic curvature): methodology of Example 1, C9E5 as reference surfactant; for dS*/dx: polar oil in mixtures with C9E5, heptane (cyclohexane for CBD) as oil
Experimental: The characteristic curvature (Cc) of the candidate hydrophilic linker with extremely negative Cc (Cc<−5) was determined following the mixed reference and test surfactant method used by Zarate et al.. […] The salinity phase scans were conducted by vortex-mixing 2 mL of the aqueous surfactant solution, containing a set value of sodium chloride (g NaCl/100 mL of aqueous surfactant solution or % w/v NaCl) with 2 mL of n-heptane at room temperature in 2-dram vials sealed with a silicone-lined cap. […] The difference between the initial volume added to the vial (2 mL), and the excess phase volume was considered the volume solubilized. The ratio between the volume solubilized (in mL) and the total mass of surfactant mixture (0.2 g) was reported as the solubilization parameter (SP) for the given phase at the set salinity.

[3] = literature value, cited from earlier work
[4] = adapted from [21]; cited from earlier work
[5] = from Drugbank, nonylphenol from ChemSpider

CC(C)Cc1ccc(C(C)C(=O)O)cc1 (racemic) [Ibuprofen]
Polar area [1]: 37 Å^2
Number of H-acceptors [1, 5]: 2
Number of H-donors [1, 5]: 1
Dipole moment [1]: 1.9 Debye
Cc (characteristic curvature) [2]: +4.9

CCOC(=O)c1ccc(N)cc1 [Benzocaine]
Cc (characteristic curvature) [2]: +1.6
dS*/dx [2]: −27 % w/v NaCl

C=C(C)[C@@H]1CCC(C)=C[C@H]1c1c(O)cc(CCCCC)cc1O [Cannabidiol (CBD), Cannabidiol]
Polar area [1]: 40 Å^2
Aqueous solubility [1, 5]: 0.0013 wt %
Number of H-acceptors [1, 5]: 2
Number of H-donors [1, 5]: 2
pKa [1, 5]: Neutral
Dipole moment [1]: 1.9 Debye
Cc (characteristic curvature) [2]: +2.6
dS*/dx [2]: −38 % w/v NaCl

C=CCc1ccc(O)c(OC)c1 [Eugenol]
Polar area [1]: 29 Å^2
Number of H-acceptors [1, 5]: 2
Number of H-donors [1, 5]: 1
pKa [1, 5]: Neutral
Dipole moment [1]: 2.8 Debye
Cc (characteristic curvature) [2]: +2.8
dS*/dx [2]: −37 % w/v NaCl

CCCCCCCC/C=C\CCCCCCCC(=O)OCC(O)CO (centres unmarked) [Glycerol monooleate]
Cc (characteristic curvature) [3]: +6.6 ± 1.5
Cc (characteristic curvature) ([3]; listed as Peceol™): +6.6

CCCCCCCC/C=C\CCCCCCCC(=O)O [Oleic acid]
Cc (characteristic curvature) [3]: 0 ± 0.1

CCCCCCCC(=O)[O-].[Na+] [Sodium octanoate]
Cc (characteristic curvature) [3]: −2.1 ± 0.1
L [4]: 12 Å
vs/as [4]: 4.6 Å

CCCCCCCC/C=C\CCCCCCCC(=O)[O-].[Na+] [Sodium oleate]
Cc (characteristic curvature) [3]: −1.7 ± 0.1
L [4]: 30 Å
vs/as [4]: 8.4 Å

CCCCCCCC/C=C\CCCCCCCC(=O)OCCOCC(OCCO)C1OCC(OCCO)C1OCCO (centres unmarked) [Tween 80]
Cc (characteristic curvature) [3]: −3.0 ± 0.7
L [4]: 34 Å
vs/as [4]: 25.8 Å

Disodium stearoyl capryl glutamate
Cc (characteristic curvature) [3]: −5 ± 0.2
vs/as [4]: 7.9 Å

Nonylphenol
Polar area [1]: 20 Å^2
Number of H-acceptors [1, 5]: 2
Number of H-donors [1, 5]: 1
pKa [1, 5]: Neutral
Dipole moment [1]: 1.6 Debye
logP ([1]; octanol-water, from Drugbank, nonylphenol from ChemSpider): 5.8
Cc (characteristic curvature) [2]: +7.2

Sorbitan monolaurate [Sorbitan monolaurate, Span 20]
Cc (characteristic curvature) [3]: +3.5 ± 0.8

Sorbitan monooleate [Sorbitan monooleate (Span 80)]
Cc (characteristic curvature) [3]: +5.0 ± 1^

Sucrose distearate
Cc (characteristic curvature) [3]: +4 ± 0.2

Sucrose palmitate
Cc (characteristic curvature) [3]: −0.8 ± 0.2
